{
  "source": "paper PMC8752738",
  "about": "“A propolis-derived small molecule ameliorates metabolic syndrome in obese mice by targeting the CREB/CRTC2 transcriptional complex” (Nature Communications, 2022)",
  "key": {"[1]": {"test": "Glucose, insulin, and pyruvate tolerance tests", "assay_type": "in vivo, mouse", "parameters": "AUC of IGTT, Total Area / AUC analysis of ITT, Total Area / AUC of ITT, group mean / AUC of PTT, group mean / IGTT, Mean Diff. APC - VEH / IGTT, group mean (Mean 1, APC): unit not given beside the values", "protocol": "After overnight fasting, mice were i.p. injected or treated orally with D-glucose (1–2 g/kg) for glucose-tolerance tests (IGTT or OGTT) or injecting with sodium pyruvate (1–2 g/kg) for pyruvate tolerance tests (PTT). Insulin-tolerance tests (ITT) were performed by i.p. injection of insulin (1 U/kg) 2-h after food removal. […]"}, "LXRα": {"tested_on": "LXRα", "test": "Immunoblot of LXRα in insulin-stimulated primary hepatocytes", "assay_type": "cell-based, mouse", "settings": "for relative LXRa protein: individual replicates, Supp. Fig.6 b; for relative LXRa protein, mean: N=3", "protocol": "3 Supplementary Figure 6. APC inhibited transcription induced by half-CRE in the promoters of\n5 a) Immunoblot of LXRa protein levels in primary hepatocytes stimulated with insulin (100 nM) for\n6 indicated times (0–18 h). One presentative result from three experiments is shown here. Relative\n7 LXRa protein level normalized to GAPDH shown as a bar graph (b). Data are represented as\n8 mean ± SEM (n=3 per treatment). *, p < 0.05; **, p < 0.01; p values were determined by two-way […]\n(1 picture or pasted object on this page, not shown here)"}, "[2]": {"settings": "db/db mice, ip APC, ITT 0-120 min"}, "[3]": {"settings": "db/db mice, ip APC, 15 min, n=6"}, "[4]": {"settings": "db/db mice, ip APC, 30 min, n=6"}, "[5]": {"settings": "db/db mice, ip APC, 60 min, n=6"}, "[6]": {"settings": "db/db mice, ip APC, 120 min, n=6"}, "[7]": {"settings": "db/db mice, ip APC, PTT 0-120 min"}},
  "note": "Several values for one entry are separate records, joined by “and”; a condition that tells them apart may be missing. Identical values can stand only once.",
  "data": [
    {"smiles": "CC(C)=CCc1cc(C=CC(=O)O)cc(CC=C(C)C)c1O", "note": "[APC, 3,5-diprenyl-4-hydroxycinnamic acid]", "values": [
      {"measurement": "AUC of ITT (Total Area), individual mice", "setting": "[1]; db/db mice, ip APC", "result": "528.6 and 524.4 and 533.7 and 561.3 and 514.8 and 472.5"},
      {"measurement": "AUC of ITT in db, difference between means (APC - VEH) ± SEM", "setting": "[1]; db/db mice, ip APC", "result": "-215.2 ± 51.46"},
      {"measurement": "AUC of PTT, individual mice", "setting": "[1]; db/db mice, ip APC", "result": "534.6 and 662.4 and 481.5 and 659.7 and 691.6 and 494.5"},
      {"measurement": "IGTT blood glucose", "setting": "[1]; db/db mice, ip APC, 0 mins, individual mouse, n=8", "result": "153 mg/dL and 144 mg/dL and 142.2 mg/dL and 138.6 mg/dL and 176.4 mg/dL and 127.8 mg/dL and 140.4 mg/dL and 113.4 mg/dL"},
      {"measurement": "IGTT blood glucose", "setting": "[1]; db/db mice, ip APC, 15 mins, individual mouse, n=8", "result": "477 mg/dL and 363.6 mg/dL and 334.8 mg/dL and 511.2 mg/dL and 419.4 mg/dL and 423 mg/dL and 480.6 mg/dL and 525.6 mg/dL"},
      {"measurement": "IGTT blood glucose", "setting": "[1]; db/db mice, ip APC, 30 mins, individual mouse, n=8", "result": "262.8 mg/dL and 450 mg/dL and 293.4 mg/dL and 275.4 mg/dL and 228.4 mg/dL and 228.6 mg/dL and 124.2 mg/dL and 385.2 mg/dL"},
      {"measurement": "IGTT blood glucose", "setting": "[1]; db/db mice, ip APC, 60 mins, individual mouse, n=8", "result": "205.2 mg/dL and 233.8 mg/dL and 221.4 mg/dL and 237.6 mg/dL and 329.4 mg/dL and 163.8 mg/dL and 135 mg/dL and 216 mg/dL"},
      {"measurement": "IGTT blood glucose", "setting": "[1]; db/db mice, ip APC, 120 mins, individual mouse, n=8", "result": "176.4 mg/dL and 270 mg/dL and 153 mg/dL and 138.6 mg/dL and 250.2 mg/dL and 133.2 mg/dL and 99 mg/dL and 147.6 mg/dL"},
      {"measurement": "ITT blood glucose, difference between column means (CT vs APC)", "setting": "[1]; [2]", "result": 51.32},
      {"measurement": "ITT blood glucose, mean over all time points (Mean of APC)", "setting": "[1]; [2]", "result": 134.7},
      {"measurement": "ITT blood glucose, Mean Diff. APC - CT", "setting": "[1]; db/db mice, ip APC, 0 min", "result": -52.47},
      {"measurement": "ITT blood glucose, individual mice", "setting": "[1]; db/db mice, ip APC, 0 min", "result": "178.2 mg/dL and 172.8 mg/dL and 156.6 mg/dL and 194.4 mg/dL and 190.4 mg/dL and 192.6 mg/dL"},
      {"measurement": "ITT blood glucose, group mean (Mean 1, APC)", "setting": "[1]; db/db mice, ip APC, 0 min, n=6", "result": 180.8},
      {"measurement": "ITT blood glucose, Mean Diff. APC - CT", "setting": "[1]; db/db mice, ip APC, 15 min", "result": -63.57},
      {"measurement": "ITT blood glucose, individual mice", "setting": "[1]; db/db mice, ip APC, 15 min", "result": "137.6 mg/dL and 129.6 mg/dL and 153 mg/dL and 133 mg/dL and 138.3 mg/dL and 126 mg/dL"},
      {"measurement": "ITT blood glucose, group mean (Mean 1, APC)", "setting": "[1]; [3]", "result": 136.3},
      {"measurement": "ITT blood glucose, Mean Diff. APC - CT", "setting": "[1]; db/db mice, ip APC, 30 min", "result": -56.08},
      {"measurement": "ITT blood glucose, individual mice", "setting": "[1]; db/db mice, ip APC, 30 min", "result": "101.2 mg/dL and 129.6 mg/dL and 115.2 mg/dL and 124.2 mg/dL and 128.4 mg/dL and 111.6 mg/dL"},
      {"measurement": "ITT blood glucose, group mean (Mean 1, APC)", "setting": "[1]; [4]", "result": 118.4},
      {"measurement": "ITT blood glucose, Mean Diff. APC - CT", "setting": "[1]; db/db mice, ip APC, 60 min", "result": -54.15},
      {"measurement": "ITT blood glucose, individual mice", "setting": "[1]; db/db mice, ip APC, 60 min", "result": "120.6 mg/dL and 115 mg/dL and 129.6 mg/dL and 138.6 mg/dL and 105.2 mg/dL and 91.8 mg/dL"},
      {"measurement": "ITT blood glucose, group mean (Mean 1, APC)", "setting": "[1]; [5]", "result": 116.8},
      {"measurement": "ITT blood glucose, Mean Diff. APC - CT", "setting": "[1]; db/db mice, ip APC, 120 min", "result": -30.35},
      {"measurement": "ITT blood glucose, individual mice", "setting": "[1]; db/db mice, ip APC, 120 min", "result": "160.2 mg/dL and 127.6 mg/dL and 115.2 mg/dL and 136.6 mg/dL and 95.3 mg/dL and 93.6 mg/dL"},
      {"measurement": "ITT blood glucose, group mean (Mean 1, APC)", "setting": "[1]; [6]", "result": 121.4},
      {"measurement": "PTT blood glucose, difference between column means (VEH vs APC)", "setting": "[1]; [7]", "result": 95.48},
      {"measurement": "PTT blood glucose, mean over all time points (Mean of APC)", "setting": "[1]; [7]", "result": 143.6},
      {"measurement": "PTT blood glucose, Mean Diff. APC - VEH", "setting": "[1]; db/db mice, ip APC, 0 min", "result": -59.27},
      {"measurement": "PTT blood glucose, individual mice", "setting": "[1]; db/db mice, ip APC, 0 min", "result": "156.6 mg/dL and 129.6 mg/dL and 131.4 mg/dL and 153 mg/dL and 147.6 mg/dL and 135.8 mg/dL"},
      {"measurement": "PTT blood glucose, group mean (Mean 1, APC)", "setting": "[1]; db/db mice, ip APC, 0 min, n=6", "result": 142.3},
      {"measurement": "PTT blood glucose, Mean Diff. APC - VEH", "setting": "[1]; db/db mice, ip APC, 15 min", "result": -65.02},
      {"measurement": "PTT blood glucose, individual mice", "setting": "[1]; db/db mice, ip APC, 15 min", "result": "142.2 mg/dL and 181.8 mg/dL and 156.6 mg/dL and 169.2 mg/dL and 180.5 mg/dL and 149.4 mg/dL"},
      {"measurement": "PTT blood glucose, group mean (Mean 1, APC)", "setting": "[1]; [3]", "result": 163.3},
      {"measurement": "PTT blood glucose, Mean Diff. APC - VEH", "setting": "[1]; db/db mice, ip APC, 30 min", "result": -106.5},
      {"measurement": "PTT blood glucose, individual mice", "setting": "[1]; db/db mice, ip APC, 30 min", "result": "135 mg/dL and 194.4 mg/dL and 126 mg/dL and 172.8 mg/dL and 163.7 mg/dL and 142.2 mg/dL"},
      {"measurement": "PTT blood glucose, group mean (Mean 1, APC)", "setting": "[1]; [4]", "result": 155.7},
      {"measurement": "PTT blood glucose, Mean Diff. APC - VEH", "setting": "[1]; db/db mice, ip APC, 60 min", "result": -119.1},
      {"measurement": "PTT blood glucose, individual mice", "setting": "[1]; db/db mice, ip APC, 60 min", "result": "124.2 mg/dL and 140.4 mg/dL and 99 mg/dL and 169.2 mg/dL and 201.6 mg/dL and 93.6 mg/dL"},
      {"measurement": "PTT blood glucose, group mean (Mean 1, APC)", "setting": "[1]; [5]", "result": 138},
      {"measurement": "PTT blood glucose, Mean Diff. APC - VEH", "setting": "[1]; db/db mice, ip APC, 120 min", "result": -127.5},
      {"measurement": "PTT blood glucose, individual mice", "setting": "[1]; db/db mice, ip APC, 120 min", "result": "109.8 mg/dl and 162 mg/dl and 68.4 mg/dl and 144 mg/dl (2×) and 82.8 mg/dl"},
      {"measurement": "PTT blood glucose, group mean (Mean 1, APC)", "setting": "[1]; [6]", "result": 118.5},
      {"measurement": "IGTT AUC, Total Area", "setting": "[1]; db/db mice, ip APC, individual mouse, n=8", "result": "1110 and 1254 and 997.2 and 1163 and 1191 and 945.9 and 859.5 and 1257"},
      {"measurement": "AUC of ITT in db, group mean", "setting": "[1]; db/db mice, ip APC, n=6", "result": 522.6},
      {"measurement": "AUC in PTT, mean of differences (APC - VEH)", "setting": "[1]; db/db mice, ip APC, paired t test, 6 pairs", "result": -383.9},
      {"measurement": "AUC of IGTT in db/db, group mean", "setting": "[1]; db/db mice, n=8", "result": 1097},
      {"measurement": "AUC of ITT, group mean", "setting": "[1]; mean of APC group, n=7", "result": 367.6},
      {"measurement": "relative LXRa protein", "setting": "LXRα; Insulin 0h", "result": "101.09 and 100.00 and 97.00"},
      {"measurement": "relative LXRa protein, mean", "setting": "LXRα; Insulin 0h", "result": 99.36},
      {"measurement": "relative LXRa protein", "setting": "LXRα; Insulin 3h", "result": "65.50 and 69.00 and 75.00"},
      {"measurement": "relative LXRa protein, mean", "setting": "LXRα; Insulin 3h", "result": 69.83},
      {"measurement": "relative LXRa protein, Mean Diff. 3h vs. 0h", "setting": "LXRα; Insulin 3h minus 0h, within APC group", "result": -29.53},
      {"measurement": "relative LXRa protein", "setting": "LXRα; Insulin 18h", "result": "33.42 and 31.00 and 29.00"},
      {"measurement": "relative LXRa protein, mean", "setting": "LXRα; Insulin 18h", "result": 31.14},
      {"measurement": "relative LXRa protein, Mean Diff. 18h vs. 0h", "setting": "LXRα; Insulin 18h minus 0h, within APC group", "result": -68.22},
      {"measurement": "LXRα protein levels", "setting": "LXRα; primary hepatocytes, insulin treatment 18-h", "result": "significantly reduced"}
    ]}
  ]
}
